Source: patent publication US20220380347A1, “INHIBITORS OF CYSTEINE PROTEASES AND METHODS OF USE THEREOF” (Pardes Biosciences, Inc., priority 2020, published 2022)
“And” between values parts separate entries of the source, which are not always exact repeats. Equal values may be shown once. Read-outs that look alike come from different tables or passages of the source.

Tests used:
HCov OC43 = experiment: HCoV OC43 cytopathic effect (CPE) assay, CellTiter Glo; assay type: cell-based, human coronavirus (HCov) OC43
Method: Example 238: Evaluation of antiviral activity of compounds against human coronavirus (HCov) 229E and OC43 in the cytopathic effect (CPE) assays
Compounds were assayed using standard methods against multiple coronaviral strains, including HCoV 229E and OC43 strains. The antiviral activity of compounds was calculated based on the protection of the virus-induced CPE at each concentration normalized by the virus control.
Reference compound used was remdesivir; detection reagent: CellTiter Glo.) The CPE were measured by CellTiter Glo following the manufacturer's manual. The antiviral activity of compounds was calculated based on the protection of the virus-induced CPE at each concentration normalized by the virus control.
Cell viability was measured with CellTiter Glo.

[1] = target: COVID-19 (nCoV-2019, SARS-CoV2) Mpro (Severe acute respiratory syndrome coronavirus 2, UniProt P0DTD1); experiment: COVID-19 (nCoV-2019, SARS-CoV2) Mpro enzymatic assay; assay type: biochemical; conditions: 25 nM Mpro, 25 μM substrate; read-out: COVID-19 Mpro IC50
229E Mpro = 229E Mpro (Human coronavirus 229E, UniProt P0C6X1); experiment: 229E Mpro enzymatic assay (standard methods, SARS-CoV2 Mpro assay given as exemplary); assay type: biochemical, human coronavirus (HCov) 229E
Method: Compounds were assayed using standard methods to assess compound activity and IC50. As an exemplary for assessment of the SARS-COV2 Mpro, the C-His6-tagged Mpro (NC_045512) was cloned, expressed in E. coli and purified. The assay buffer contained 20 mM of Tris-HCl (pH 7.3), 100 mM of NaCl, 1 mM of EDTA, 5 mM of TCEP and 0.1% BSA. The final concentrations of the Mpro protein and substrate were 25 nM and 25 μM, respectively, in the Mpro enzymatic assay. The Km of the Mpro substrate for the protease was 13.5 μM.
The compounds were added to an assay plate. […] For no inhibition control (ZPE, zero percent effect), no compound was added.
IC50 values of compounds were calculated with the GraphPad Prism software using the nonlinear regression model of log(inhibitor) vs. response—Variable slope (four parameters). The inhibition activity was calculated using the formula below, IC50 values is calculated using the Inhibition % data.
Inhibition %=[(Sample-Average ZPE)/(Average HPE-Average ZPE)]*100%^#

[2] = read-out: OC43 IC50 (uM) MEDIAN, median
[3] = Betacoronavirus 1, OC43, read-out: OC43 IC50 (uM) MEDIAN, median

Chain of 229E Mpro (P0C6X1 2966-3267): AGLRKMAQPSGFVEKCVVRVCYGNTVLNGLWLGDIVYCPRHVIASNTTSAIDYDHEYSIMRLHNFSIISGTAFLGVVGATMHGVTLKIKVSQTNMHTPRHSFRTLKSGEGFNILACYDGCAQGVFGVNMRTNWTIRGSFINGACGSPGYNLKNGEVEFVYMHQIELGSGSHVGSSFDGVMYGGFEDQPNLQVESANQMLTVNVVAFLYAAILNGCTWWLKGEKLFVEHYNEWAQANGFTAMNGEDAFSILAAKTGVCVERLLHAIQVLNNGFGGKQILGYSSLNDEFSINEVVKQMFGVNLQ

Compound	IC50 (HCov OC43; [2]) [µM]	IC50 [1]	EC50 (229E Mpro; read-out: 229E Mpro EC50) [nM]	IC50 (HCov OC43; [3]) [µM]	EC50 (229E Mpro; 229E Mpro EC50) [nM]
C[C@@]1(O)C[C@H](C(=O)N(c2ccc(S(F)(F)(F)(F)F)cc2)C(C(=O)NC2CCC(F)(F)CC2)c2cccnc2F)N(C#N)C1 (single isomer, unassigned) [1158 Isomer 2]	< 2	2000 to 10000 nM	< 2000	–	–
CO[C@@H]1C[C@H](C(=O)N(c2ccc(S(F)(F)(F)(F)F)cc2)C(C(=O)NC2CCOC(C)(C)C2)c2cccnc2)N(C#N)C1 (single isomer, unassigned) [1165 Isomer 1]	–	< 2000 nM	–	< 2	< 2000
CO[C@@H]1C[C@H](C(=O)N(c2ccc(S(F)(F)(F)(F)F)cc2)C(C(=O)NC2CCOC(C)(C)C2)c2cccnc2)N(C#N)C1 (single isomer, unassigned) [1165 Isomer 2]	2 to 10	10000 to 30000 nM	< 2000	–	–
CO[C@@H]1C[C@H](C(=O)N(c2ccc(S(F)(F)(F)(F)F)cc2)C(C(=O)Nc2ccc3c(c2)OCCO3)c2cccnc2)N(C#N)C1 (single isomer, unassigned) [1170 Isomer 1]	–	10000 to 30000 nM	–	2 to 10	2000 to 10000
CO[C@@H]1C[C@H](C(=O)N(c2ccc(S(F)(F)(F)(F)F)cc2)C(C(=O)Nc2ccc3c(c2)OCCO3)c2cccnc2)N(C#N)C1 (single isomer, unassigned) [1170 Isomer 2]	< 2	< 2000 nM	–	–	< 2000
CO[C@@H]1C[C@H](C(=O)N(c2ccc(S(F)(F)(F)(F)F)cc2)C(C(=O)N2CC3(COC3)C2)c2cccnc2)N(C#N)C1 (single isomer, unassigned) [1171 Isomer 1]	< 2	10000 to 30000 nM and < 2000 nM	–	2 to 10	< 2000
CO[C@@H]1C[C@H](C(=O)N(c2ccc(S(F)(F)(F)(F)F)cc2)C(C(=O)N2CCCC3(COC3)C2)c2cccnc2)N(C#N)C1 (single isomer, unassigned) [1175 Isomer 2]	2 to 10	10000 to 30000 nM	< 2000	–	–
CO[C@@H]1C[C@H](C(=O)N(c2ccc(S(F)(F)(F)(F)F)cc2)C(C(=O)NCC2(C)COC2)c2cccnc2)N(C#N)C1 (single isomer, unassigned) [1176 Isomer 1]	–	< 2000 nM	–	< 2	< 2000
CO[C@@H]1C[C@H](C(=O)N(c2ccc(S(F)(F)(F)(F)F)cc2)C(C(=O)NCC2(C)COC2)c2cccnc2)N(C#N)C1 (single isomer, unassigned) [1176 Isomer 2]	2 to 10	10000 to 30000 nM	< 2000	–	–
COc1ccc(NC(=O)C(c2cccnc2)N(C(=O)[C@H]2C[C@@H](OC)CN2C#N)c2ccc(S(F)(F)(F)(F)F)cc2)cn1 (single isomer, unassigned) [1180 Isomer 1]	–	2000 to 10000 nM	–	2 to 10	2000 to 10000
COc1ccc(NC(=O)C(c2cccnc2)N(C(=O)[C@H]2C[C@@H](OC)CN2C#N)c2ccc(S(F)(F)(F)(F)F)cc2)cn1 (single isomer, unassigned) [1180 Isomer 2]	< 2	< 2000 nM	–	–	< 2000
CO[C@@H]1C[C@H](C(=O)N(c2ccc(S(F)(F)(F)(F)F)cc2)C(C(=O)NC2CC3CCC(C2)O3)c2cccnc2)N(C#N)C1 (single isomer, unassigned) [1187 Isomer 1]	–	< 2000 nM	–	< 2	< 2000
CO[C@@H]1C[C@H](C(=O)N(c2ccc(S(F)(F)(F)(F)F)cc2)C(C(=O)NC2CC3CCC(C2)O3)c2cccnc2)N(C#N)C1 (single isomer, unassigned) [1187 Isomer 2]	< 2	< 2000 nM	< 2000	–	–
CO[C@@H]1C[C@H](C(=O)N(c2ccc(S(F)(F)(F)(F)F)cc2)C(C(=O)NCC(C)(C)OC)c2cccnc2)N(C#N)C1 (single isomer, unassigned) [1194 Isomer 1]	–	< 2000 nM	–	< 2	< 2000
CO[C@@H]1C[C@H](C(=O)N(c2ccc(S(F)(F)(F)(F)F)cc2)C(C(=O)NCC(C)(C)OC)c2cccnc2)N(C#N)C1 (single isomer, unassigned) [1194 Isomer 2]	2 to 10	10000 to 30000 nM	< 2000	–	–
CO[C@@H]1C[C@H](C(=O)N(c2ccc(S(F)(F)(F)(F)F)cc2)C(C(=O)NCCc2cc(F)cc(F)c2)c2cccnc2)N(C#N)C1 (single isomer, unassigned) [1196 Isomer 1]	–	2000 to 10000 nM	–	2 to 10	< 2000

Compound	IC50 (HCov OC43; [2]) [µM]	IC50 [1]	EC50 (229E Mpro; read-out: 229E Mpro EC50) [nM]	IC50 (HCov OC43; [3]) [µM]	EC50 (229E Mpro; 229E Mpro EC50) [nM]
CO[C@@H]1C[C@H](C(=O)N(c2ccc(S(F)(F)(F)(F)F)cc2)C(C(=O)NCCc2cc(F)cc(F)c2)c2cccnc2)N(C#N)C1 (single isomer, unassigned) [1196 Isomer 2]	< 2	< 2000 nM	< 2000	–	–
CO[C@@H]1C[C@H](C(=O)N(c2ccc(S(F)(F)(F)(F)F)cc2)C(C(=O)NCCc2cccc(F)c2)c2cccnc2)N(C#N)C1 (single isomer, unassigned) [1197 Isomer 1]	–	< 2000 nM	–	< 2	< 2000
CO[C@@H]1C[C@H](C(=O)N(c2ccc(S(F)(F)(F)(F)F)cc2)C(C(=O)NCCc2cccc(F)c2)c2cccnc2)N(C#N)C1 (single isomer, unassigned) [1197 Isomer 2]	2 to 10	2000 to 10000 nM	< 2000	–	–
CO[C@@H]1C[C@H](C(=O)N(c2ccc(C(C)(C)C)cc2)C(C)(C(=O)NC2CCC(F)(F)CC2)c2cnccn2)N(C#N)C1 (single isomer, unassigned) [1198 Isomer 1]	–	10000 to 30000 nM	–	2 to 10	2000 to 10000
CO[C@@H]1C[C@H](C(=O)N(c2ccc(C(C)(C)C)cc2)C(C)(C(=O)NC2CCC(F)(F)CC2)c2cnccn2)N(C#N)C1 (single isomer, unassigned) [1198 Isomer 2]	< 2	< 2000 nM	–	–	< 2000
CO[C@@H]1C[C@H](C(=O)N(c2ccc(S(F)(F)(F)(F)F)cc2)C(C(=O)NC2CCC(F)(F)CC2)c2cnccc2C)N(C#N)C1 (single isomer, unassigned) [1199 Isomer 1]	–	< 2000 nM	< 2000	< 2	–
CO[C@@H]1C[C@H](C(=O)N(c2ccc(S(F)(F)(F)(F)F)cc2)C(C(=O)NC2CCC(F)(F)CC2)c2cnccc2C)N(C#N)C1 (single isomer, unassigned) [1199 Isomer 2]	< 2	< 2000 nM	< 2000	–	–
CO[C@@H]1C[C@H](C(=O)N(c2ccc(S(F)(F)(F)(F)F)cc2)C(C(=O)NC2CCC(F)(F)CC2)c2cnccc2C(F)(F)F)N(C#N)C1 (single isomer, unassigned) [1202 Isomer 1]	–	< 2000 nM	–	< 2	< 2000
CO[C@@H]1C[C@H](C(=O)N(c2ccc(S(F)(F)(F)(F)F)cc2)C(C(=O)NC2CCC(F)(F)CC2)c2cnccc2C(F)(F)F)N(C#N)C1 (single isomer, unassigned) [1202 Isomer 2]	< 2	< 2000 nM	< 2000	–	–
CO[C@@H]1C[C@H](C(=O)N(c2ccc(C(C)(C)C)cc2F)C(C(=O)NC2CCC(F)(F)CC2)c2cncc(F)c2)N(C#N)C1 (single isomer, unassigned) [1207 Isomer 1]	10 to 30	2000 to 10000 nM	–	–	10000 to 30000
CO[C@@H]1C[C@H](C(=O)N(c2ccc(C(C)(C)C)cc2F)C(C(=O)NC2CCC(F)(F)CC2)c2cncc(F)c2)N(C#N)C1 (single isomer, unassigned) [1207 Isomer 2]	> 30	> 30000 nM	–	–	> 30000
C[C@H]1CN(C#N)[C@H]1C(=O)N(c1ccc(S(F)(F)(F)(F)F)cc1)C(C(=O)NC1CCC(F)(F)CC1)c1cncc(F)c1 (single isomer, unassigned) [1210 Isomer 1]	10 to 30	10000 to 30000 nM	–	–	< 2000
C[C@H]1CN(C#N)[C@H]1C(=O)N(c1ccc(S(F)(F)(F)(F)F)cc1)C(C(=O)NC1CCC(F)(F)CC1)c1cncc(F)c1 (single isomer, unassigned) [1210 Isomer 2]	< 2	< 2000 nM	< 2000	–	–
C[C@@H]1CN(C#N)[C@H]1C(=O)N(c1ccc(S(F)(F)(F)(F)F)cc1)C(C(=O)NC1CCC(F)(F)CC1)c1cncc(F)c1 (single isomer, unassigned) [1211 Isomer 1]	–	2000 to 10000 nM	–	< 2	< 2000
C[C@@H]1CN(C#N)[C@H]1C(=O)N(c1ccc(S(F)(F)(F)(F)F)cc1)C(C(=O)NC1CCC(F)(F)CC1)c1cncc(F)c1 (single isomer, unassigned) [1211 Isomer 2]	< 2	< 2000 nM	< 2000	–	–
